In patent publication US11447740B2, “Lactic acid bacterium and use thereof” (Sone Farm Co., Ltd., priority 2017, dated 2022):

Biological target: T1, hyaluronidase (Bos taurus, UniProt Q2YDK3)
T1 sequence (Q2YDK3 36-553): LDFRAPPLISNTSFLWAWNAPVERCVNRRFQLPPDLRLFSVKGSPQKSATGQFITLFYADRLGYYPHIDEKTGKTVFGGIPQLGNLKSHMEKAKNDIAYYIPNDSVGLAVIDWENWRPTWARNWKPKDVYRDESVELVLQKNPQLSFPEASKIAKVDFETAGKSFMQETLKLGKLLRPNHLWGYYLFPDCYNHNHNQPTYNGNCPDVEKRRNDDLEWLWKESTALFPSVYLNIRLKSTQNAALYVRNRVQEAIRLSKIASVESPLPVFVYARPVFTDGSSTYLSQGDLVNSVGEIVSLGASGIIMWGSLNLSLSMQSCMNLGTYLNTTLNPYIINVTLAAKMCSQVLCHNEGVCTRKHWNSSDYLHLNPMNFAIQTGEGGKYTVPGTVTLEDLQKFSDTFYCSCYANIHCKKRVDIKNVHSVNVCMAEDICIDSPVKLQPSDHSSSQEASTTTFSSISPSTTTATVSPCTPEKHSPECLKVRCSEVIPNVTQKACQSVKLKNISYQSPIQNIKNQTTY
Test: Hyaluronidase activity inhibition
Assay type: biochemical
Conditions: pH 4.0, 37° C.
Method: 5 μL of a hyaluronidase enzyme solution (MP Biomedicals, 4 mg/mL, 100 mM sodium acetate buffer (pH 4.0)) was added to 10 μL of an aqueous solution containing polysaccharides at an optional concentration, which was prepared from the polysaccharide sample containing the neutral polysaccharide fractions and the acidic polysaccharide fractions, the neutral polysaccharide fractions, and the acidic polysaccharide fractions, which were exopolysaccharides produced by the strain IJH-SONE68 and obtained in Example 4. The resultant mixture was incubated at 37° C. for 20 minutes. Thereafter, to the mixture, 10 μL of an enzyme-activating solution (0.5 mg/ml Compound 48/80 (manufactured by MP Biomedicals)), 3.75 mg CaCl2.2H2O, and 100 mM sodium acetate buffer (pH 4.0)) were added, and incubated again at 37° C. for 20 minutes. Subsequently, to the resultant mixture, 25 μL of a sodium hyaluronate solution (Wako Pure Chemical Industries, 0.8 mg/mL, 100 mM sodium acetate buffer (pH 4.0)) was added, and further reacted at 37° C. for 40 minutes. After the reaction, the reaction was terminated by adding 10 μL of 0.4 M NaOH aqueous solution. […] 40 μL of the reaction solution was mixed with 200 μL of p-DMAB solution (described below), the mixture was reacted at 37° C. for 20 minutes, and the absorbance at 585 nm was then measured. […]

## CC1(C)[C@@H](O[C@H]2O[C@H](C(=O)[O-])[C@@H](O)[C@H](O)[C@H]2O[C@@H]2O[C@H](C(=O)[O-])[C@@H](O)[C@H](O)[C@H]2O)CC[C@]2(C)[C@H]3C(=O)C=C4[C@@H]5C[C@@](C)(C(=O)O)CC[C@]5(C)CC[C@@]4(C)[C@]3(C)CC[C@@H]12.[K+].[K+] [Dipotassium glycyrrhizinate]
  Hyaluronidase activity inhibition IC50: 530 µg/mL
